Like-named read-outs stand apart in the source and are kept apart here.
How the values were obtained:
C4-2B cells [1] = experiment: Imaging of C4-2B cells (cell density); format: cell-based; details: FIG. 21, 12 days' treatment
Excerpt: FIG. 21. Imaging of C4-2B cells after 12 days' treatment with the indicated compounds.

C4-2B cells [2] = experiment: WST cell proliferation assay in C4-2B cells; format: cell-based; details: FIG. 22, 6 days
Method: FIG. 22A-22B. WST cell proliferation assay of indicated compounds in C4-2B cells. Cells were treated for 6 days. […] (FIG. 19B) Effects of indicated compounds on EZH2, AR, and FOXA1 by western blot at 1 μM in C4-2B cells.
(§1) Cell proliferation was measured using WST-1 Kit (Clontech) according to manufacturer's protocol.

H3K27me3 = experiment: Western blot of H3K27me3 levels in C4-2B cells; format: cell-based; details: FIG. 14, 10 μM for 6 days
SUZ12 [3] = experiment: Western blot of SUZ12 in SU-DHL6 cells; format: cell-based; details: FIG. 33, 48 hours
Method: (§2) FIG. 33. […] Cell were treated for 48 hours with the indicated concentrations of compounds.

EZH2 [4] = molecular target: T1, EZH2 (Homo sapiens, UniProt Q15910); experiment: Western blot of EZH2 with esiRNA knockdown of VHL or siRNA control; format: cell-based; details: FIG. 16, duplicate
T1 sequence (Q15910 whole entry): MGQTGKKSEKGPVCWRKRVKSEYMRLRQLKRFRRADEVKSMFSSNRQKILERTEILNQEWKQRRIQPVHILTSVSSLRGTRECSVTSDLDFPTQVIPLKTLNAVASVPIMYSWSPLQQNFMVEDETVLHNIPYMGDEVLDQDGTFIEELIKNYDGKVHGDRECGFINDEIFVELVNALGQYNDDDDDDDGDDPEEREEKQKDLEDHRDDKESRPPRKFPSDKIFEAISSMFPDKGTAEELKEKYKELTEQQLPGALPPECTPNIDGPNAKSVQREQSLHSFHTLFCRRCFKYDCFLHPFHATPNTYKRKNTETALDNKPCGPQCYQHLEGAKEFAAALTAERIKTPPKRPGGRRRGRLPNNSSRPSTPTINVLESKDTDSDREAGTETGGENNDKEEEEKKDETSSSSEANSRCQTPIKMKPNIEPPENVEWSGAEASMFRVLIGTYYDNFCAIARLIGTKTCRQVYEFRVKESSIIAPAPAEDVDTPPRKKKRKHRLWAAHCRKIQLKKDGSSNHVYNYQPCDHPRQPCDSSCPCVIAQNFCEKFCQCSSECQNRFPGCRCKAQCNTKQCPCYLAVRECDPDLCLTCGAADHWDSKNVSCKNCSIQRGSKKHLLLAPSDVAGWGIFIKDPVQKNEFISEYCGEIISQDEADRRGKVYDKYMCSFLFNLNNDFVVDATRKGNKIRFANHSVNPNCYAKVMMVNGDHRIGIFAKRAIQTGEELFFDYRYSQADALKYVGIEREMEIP
T1 sequence (Q15022 whole entry partner): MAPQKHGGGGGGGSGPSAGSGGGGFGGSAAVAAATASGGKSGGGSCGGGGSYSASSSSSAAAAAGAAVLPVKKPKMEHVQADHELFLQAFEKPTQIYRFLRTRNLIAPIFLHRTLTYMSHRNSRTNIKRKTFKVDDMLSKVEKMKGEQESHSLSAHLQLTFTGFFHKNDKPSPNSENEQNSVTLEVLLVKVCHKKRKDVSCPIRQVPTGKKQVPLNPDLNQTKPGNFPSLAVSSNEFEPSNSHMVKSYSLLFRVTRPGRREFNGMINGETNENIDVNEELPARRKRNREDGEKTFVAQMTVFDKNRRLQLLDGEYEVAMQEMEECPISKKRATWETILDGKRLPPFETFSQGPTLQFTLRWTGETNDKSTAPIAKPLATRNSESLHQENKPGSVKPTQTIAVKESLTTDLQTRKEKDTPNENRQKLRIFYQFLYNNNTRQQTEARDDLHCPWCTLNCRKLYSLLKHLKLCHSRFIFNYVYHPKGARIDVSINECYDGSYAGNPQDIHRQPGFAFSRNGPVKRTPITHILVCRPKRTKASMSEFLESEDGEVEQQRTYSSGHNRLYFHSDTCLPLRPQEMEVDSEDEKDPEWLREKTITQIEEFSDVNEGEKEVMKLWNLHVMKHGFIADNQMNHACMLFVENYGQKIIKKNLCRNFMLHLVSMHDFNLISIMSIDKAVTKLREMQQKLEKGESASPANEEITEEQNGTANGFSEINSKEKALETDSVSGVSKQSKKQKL
T1 sequence (O75530 whole entry partner): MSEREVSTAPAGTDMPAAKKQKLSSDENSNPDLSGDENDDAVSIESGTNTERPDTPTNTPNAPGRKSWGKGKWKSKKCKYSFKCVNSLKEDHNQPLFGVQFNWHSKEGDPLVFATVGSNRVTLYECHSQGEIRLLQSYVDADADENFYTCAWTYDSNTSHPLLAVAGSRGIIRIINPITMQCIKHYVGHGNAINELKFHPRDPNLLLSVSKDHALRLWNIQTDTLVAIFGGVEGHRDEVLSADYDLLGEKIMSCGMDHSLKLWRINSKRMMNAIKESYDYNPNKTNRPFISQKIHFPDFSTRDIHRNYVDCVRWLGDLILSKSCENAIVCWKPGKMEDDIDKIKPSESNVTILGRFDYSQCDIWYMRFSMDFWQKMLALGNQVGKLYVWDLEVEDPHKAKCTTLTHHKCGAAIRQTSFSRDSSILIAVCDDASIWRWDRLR
Method: FIG. 16. Cells were treated with indicated compounds with either esiRNA knockdown of VHL or siRNA control (no EZH2 knockdown) and blotted for EZH2 and VHL. […] Experiment was run in duplicate with both replicates shown on the left and right sides.

EZH2 [5] = molecular target: T1, EZH2; experiment: Ubiquitination of EZH2 in C4-2B cells with MG132; format: cell-based; details: FIG. 15B, plus proteasome inhibitor MG132
LNCaP cells [6] = experiment: Colony assay using LnCaP cells; format: cell-based; details: FIG. 17B, treatment for 7 days
Method: FIG. 17A-17B. (FIG. 17A) Live imaging cell proliferation of LNCaP cells. Cells were treated with indicated compounds and monitored over 168 hours for proliferation by phase object confluence. DMSO is set as the negative control. […] (FIG. 17B) Colony assays using LnCaP cells after treatment with the indicated compounds for 7 days.

SUZ12 [7] = experiment: Western blot of SUZ12 in C4-2B cells; format: cell-based; details: FIG. 14, 10 μM for 6 days
EED [8] = experiment: Western blot of EED in SU-DHL4 cells; format: cell-based; details: FIG. 33, 48 hours
Method: as §2

EED [9] = experiment: Western blot of EED in SU-DHL6 cells; format: cell-based; details: FIG. 33, 48 hours
Method: as §2

SU-DHL4 cells = experiment: WST cell viability assay in SU-DHL4 cells; format: cell-based; details: for IC50: Homo sapiens, variable slope, read-out: IC50 (best-fit value)
Method: as §1

EZH2 [10] = molecular target: T1, EZH2; experiment: Western blot of EZH2 protein in PC3 cells; details: FIG. 26, 6 days treatment
Excerpt: (Upper right western blot) Western blot analysis of EZH2 protein in PC3 cells after 6 days treatment.

[11] = system: prostate cancer cell lines; experiment: WST-1 cell proliferation in multiple prostate cancer cell lines; format: cell-based; details: WST-1 Kit
Method: as §1

22Rv1 cells [12] = experiment: Cell titer glo cell viability assay in 22Rv1 cells; format: cell-based
EZH2 [13] = experiment: Western blot of EZH2 in SU-DHL6 cells; format: cell-based; details: FIG. 33, 48 hours
LNCaP cells [14] = experiment: Imaging of LnCaP cells (cell density); format: cell-based; details: FIG. 18, 12 days' treatment
Excerpt: FIG. 18. Imaging of LnCaP cells after 12 days' treatment with the indicated compounds.

C4-2B cells [15] = experiment: Colony assay using C4-2B cells; format: cell-based; details: FIG. 20B, treatment for 7 days
Method: FIG. 20A-20B. (FIG. 20A) Live imaging cell proliferation of C4-2B cells. Cells were treated with indicated compounds and monitored over 168 hours for proliferation by phase object confluence. DMSO is set as the negative control. […] (FIG. 20B) Colony assays using C4-2B cells after treatment with the indicated compounds for 7 days.

LNCaP cells [16] = experiment: Live imaging cell proliferation of LNCaP cells; format: cell-based; details: FIG. 17A, monitored over 168 hours
Excerpt: FIG. 17A-17B. (FIG. 17A) Live imaging cell proliferation of LNCaP cells. […] DMSO is set as the negative control. […] (FIG. 17B) Colony assays using LnCaP cells after treatment with the indicated compounds for 7 days.

22Rv1 cells [17] = experiment: WST cell viability assay in 22Rv1 cells; format: cell-based
Method: as §1

[18] = Pharmacokinetics in mice, IP cassette dosing, plasma LC/MS/MS; format: in vivo, C57Bl/6 mouse; details: mouse, C57Bl/6 mice, 4 mg/kg IP, cassette format
Method: FIG. 35. Pharmacokinetics of indicated compounds. Compounds were administered to C57Bl/6 mouse mice at 4 mg/kg using intraperitoneal (IP) injection in cassette format. Plasma was collected at the indicated time points and analyzed by LC/MS/MS using standard methods.
For assessing pharmacokinetics, compounds were administered to C57Bl/6 mouse mice at 4 mg/kg using intraperitoneal (IP) injection in cassette format. Plasma was collected at the indicated time points and analyzed by LC/MS/MS using standard methods.

EZH2 [19] = experiment: Western blot of EZH2 in SU-DHL4 cells; format: cell-based; details: FIG. 33, 48 hours
EZH2 [20] = molecular target: T1, EZH2; experiment: Western blot of EZH2 protein in C4-2B cells
SU-DHL6 cells = experiment: WST cell viability assay in SU-DHL6 cells; format: cell-based
Method: as §1

SUZ12 [21] = experiment: Western blot of SUZ12 in SU-DHL4 cells; format: cell-based; details: FIG. 33, 48 hours
Method: as §2

LNCaP cells [22] = experiment: WST cell proliferation/viability assay in LNCaP cells; format: cell-based
Method: FIG. 19A-19B. (FIG. 19A) WST cell proliferation assay of indicated compounds in LNCaP cells. […] (FIG. 19B) Effects of indicated compounds on EZH2, AR, and FOXA1 by western blot at 1 μM in LNCaP cells.
as §1

EZH2 [23] = molecular target: T1, EZH2; experiment: Western blot of EZH2 protein in DU-145 cells; details: FIG. 27, 6 days treatment
Excerpt: (Upper right western blot) Western blot analysis of EZH2 protein in DU-145 cells after 6 days treatment.

C4-2B cells [24] = experiment: Live imaging cell proliferation of C4-2B cells; format: cell-based; details: FIG. 20A, monitored over 168 hours
Excerpt: FIG. 20A-20B. (FIG. 20A) Live imaging cell proliferation of C4-2B cells. […] DMSO is set as the negative control. […] (FIG. 20B) Colony assays using C4-2B cells after treatment with the indicated compounds for 7 days.

lymphoma cell lines = experiment: WST-1 cell proliferation in multiple lymphoma cell lines; format: cell-based; details: WST-1 Kit
Method: as §1

[25] = Table 9, WST1 within 1 μM on SU-DHL4 (as titled)

For `CCN(c1cc(-c2ccc(CN3CCN(C(=O)CCCCCCCCCC(=O)N[C@H](C(=O)N4C[C@H](O)C[C@H]4C(=O)NCc4ccc(-c5scnc5C)cc4)C(C)(C)C)CC3)cc2)cc(C(=O)NCc2c(C)cc(C)[nH]c2=O)c1C)C1CCOCC1` [Compound 6272], the “Cell density by imaging” value (C4-2B cells [1]) was “significant reduction in the cell density”, the “Inhibition of proliferation (WST)” value (C4-2B cells [2]) was “similarly potent effects on inhibiting the proliferation” and the H3K27me3 levels (H3K27me3) was “reduced H3K27me3 levels”. The “Degradation of SUZ12” value (SUZ12 [3]) was “significant degradation”, the “Ability to degrade EZH2 with esiRNA knockdown of VHL” value (EZH2 [4]; VHL knockdown) was “inhibition of the ability of active compounds 6272 to degrade EZH2” and the “Ability to degrade EZH2 with siRNA control (VHL present)” value (EZH2 [4]; siRNA control lane) was “able to strongly degrade EZH2”. For the same compound, the “Degree of ubiquitination of EZH2” value (EZH2 [5]) was “much greater degree of ubiquitination of EZH2 than the inactive compound 6286”, the Colonies (LNCaP cells [6]) was “significant reduction in the colonies” and the “Reduction of PRC2 component SUZ12” value (SUZ12 [7]) was “reduction of PRC2 component SUZ12”. The “Degradation of EED” value (EED [8]) was “significant degradation”, the “Degradation of EED” value (EED [9]) was “significant degradation” and the “Anti-proliferative effect (WST cell viability)” value (SU-DHL4 cells; FIG. 29, SU-DHL4, 4 days' treatment) was “greater anti-proliferative effect than EPZ-6438”. For the same compound, the IC50 (SU-DHL4 cells; SU-DHL-4, Table 8, WST1 test cell viability within 1 μM on SU-DHL4) was 2500 nM, the IC50 (SU-DHL4 cells; SU-DHL-4, Table 9, WST1 test cell viability within 1 μM on SU-DHL4 (as titled)) was 337 nM and the “HillSlope (best-fit value)” value (SU-DHL4 cells; Table 6, WST1 with higher dose on SU-DHL4) was −0.093. For the same compound, the “HillSlope (best-fit value)” value (SU-DHL4 cells; Table 8, WST1 within 1 μM on SU-DHL4) was −0.2858, the “HillSlope (best-fit value)” value (SU-DHL4 cells; [25]) was −1.235 and the “logIC50 (best-fit value)” value (SU-DHL4 cells; [25]) was −0.4722. The “EZH2 protein (western blot)” value (EZH2 [10]) was “significant reduction in EZH2”, the “Inhibition of cell proliferation versus EPZ-6438” value [11] was “more potent and effective at inhibiting cell proliferation than the catalytic EZH2 inhibitor EPZ-6438” and the “Anti-proliferative effect (Cell titer glo cell viability)” value (22Rv1 cells [12]; FIG. 25, 22Rv1, 5 days' treatment, concentration range) was “greater anti-proliferative effect than EPZ-6438”. For the same compound, the IC50 (22Rv1 cells [12]; Homo sapiens, Table 5, Cell titer glo test cell viability with different doses on 22Rv1, read-out: IC50 (best-fit value)) was 692 nM, the “Degradation of EZH2” value (EZH2 [13]) was “significant degradation” and the “Cell density by imaging” value (LNCaP cells [14]) was “significant reduction in the cell density”. For the same compound, the Colonies (C4-2B cells [15]) was “significant reduction in the colonies”, the “Cell proliferation by phase object confluence” value (LNCaP cells [16]) was “greatest ability to decrease LnCaP proliferation” and the “Anti-proliferative effect (WST cell viability)” value (22Rv1 cells [17]; FIG. 24, 22Rv1, 5 days' treatment, concentration range) was “greater anti-proliferative effect than EPZ-6438”. For the same compound, the IC50 (22Rv1 cells [17]; Homo sapiens, Table 4, WST1 cell viability with different doses on 22Rv1, read-out: IC50 (best-fit value)) was 1340 nM, the half-life [18] was 3.5 to 6 h and the “Degradation of EZH2” value (EZH2 [19]) was “significant degradation”. The “Degrading EZH2 protein at nM doses, versus 2304” value (EZH2 [20]; FIG. 10, 24 hours) was “more effective than 2304”, the “Degradation of EZH2” value (EZH2 [20]; FIG. 14, 10 μM for 6 days) was “strong degradation of EZH2” and the “Anti-proliferative effect (WST cell viability)” value (SU-DHL6 cells; FIG. 30, SU-DHL6, 4 days' treatment) was “greater anti-proliferative effect than EPZ-6438”. The “Anti-proliferative effect (WST cell viability) at 1 μM” value (SU-DHL6 cells; FIG. 32, SU-DHL6, 4 days' treatment, 1 μM) was “greater anti-proliferative effect than EPZ-6438”, the IC50 (SU-DHL6 cells; Homo sapiens, SU-DHL-6, Table 7, WST1 test cell viability with higher dose on SU-DHL6, variable slope, read-out: IC50 (best-fit value)) was 892 nM and the “Degradation of SUZ12” value (SUZ12 [21]) was “significant degradation”. For the same compound, the “Inhibition of proliferation (WST)” value (LNCaP cells [22]; FIG. 19A, LNCaP, 6 days) was “similarly potent effects on inhibiting the proliferation”, the “Anti-proliferative effect (WST cell viability)” value (LNCaP cells [22]; FIG. 23, LNCaP, 5 days' treatment, concentration range) was “greater anti-proliferative effect than EPZ-6438” and the IC50 (LNCaP cells [22]; Homo sapiens, Table 3, WST1 test cell viability on LNCaP, [Inhibitor] vs. normalized response, read-out: IC50 (best-fit value)) was 758 nM. The “EZH2 protein (western blot)” value (EZH2 [23]) was “significant reduction in EZH2”, the “Cell proliferation by phase object confluence” value (C4-2B cells [24]) was “decrease C4-2B proliferation” and the “Inhibition of cell proliferation versus EPZ-6438” value (lymphoma cell lines) was “more potent and effective at inhibiting cell proliferation than the catalytic EZH2 inhibitor EPZ-6438”.
